In patent EP4140481A1, “PROTEIN-OLIGOMER BINDING AGENTS AND THERAPEUTIC USES THEREOF” (Galyan Bio, Inc., priority 2021, dated 2023):
Where two headings read alike, the source gives them in different places.

Assays:
[1] = test system: STHdh 111/111 striatal cells; assay: Cell viability after heat shock (CellTiter Glo); conditions: Mus musculus, read-out: Cell Viability striatal cells 3h heat shocked
Procedure: Cell culture - ST HDH Q111/111 (CH00095, Coriell Institute) striatal derived cell line were grown at 33°C in DMEM (Sigma-Aldrich), supplemented with 10% fetal bovine serum (FBS), 1% Penicillin-Streptomycin (ThermoFisher Scientific), and 0.4 mg/ml G418 (Geneticin; Invitrogen). ST HDH Q111/111 are mouse striatal cells with polyQ length of 111.
Pre-Treatment of striatal cell line - First the medium was removed and new DMEM (DMEM, high glucose, HEPES, no phenol red) medium, supplemented with 10% fetal bovine serum (FBS), 1% Penicillin-Streptomycin, containing 10 µM compound was added. The cells were incubated at 33 °C for 24 hours.
Heat shock - Cells were heat shocked for 3 hours at 41 °C.
Treatment - Medium was removed and new DMEM (DMEM, high glucose, HEPES, no phenol red) medium, supplemented with 1% fetal bovine serum (FBS), 1% Penicillin-Streptomycin, containing 10 µM compound was added. The cells were incubated at 33 °C for 48 hours.
Cell Viability - Cell viability was measured according to manufacturer recommendations with CellTiter Glo (Promega).

mHTT = biological target: T1, mHTT (Homo sapiens, UniProt P42858); assay: mHTT levels in striatal cells (immunocytochemistry); format: cell-based, mouse; conditions: STHdh 111/111, 10 µM, 3 hours heat shock, 48 hours treatment, percentage in comparison to untreated STHdh 111/111, 3B5H10 antibody; for remaining activity at 10 µM: read-out: mHTT after treatment
T1 construct: host or cells: ST HDH Q111/111 mouse striatal cell line (knock-in locus)
Procedure: (§1) Staining - Cells were permeabilized with 0.3% Triton X-100 in 4 °C PBS (pH 7.4 from ThermoFisher) for 10 minutes. Then the cells were washed two times with 4 °C PBS. Subsequently, cells are blocked with 3% NGS (normal goat serum from Thermo Fisher) in 4 ° C PBS for 1 hour. Cells were incubated with primary antibodies in blocking buffer (PBS, 3% NGS, 0.02% NaN3) over night at 4 °C. Primary antibodies were mouse antipolyglutamine monoclonal antibody 3B5H10 (Sigma-Aldrich) at 1:250 dilution and Guinea Pig anti-MAP2 polyclonal antibody (Synaptic Systems) at 1:500 dilution. 3B5H10 binds to diffuse mHTT. Diffuse mHTT is a monomeric and small oligomeric mHTT. Diffuse mHTT is correlated to pathological parameters in Huntington's disease. Compounds that bind the mHTT will reduce the levels of diffuse mHTT detected.
Cells were washed 2 times with 4 °C PBS, and then incubated with secondary antibodies at 1:2000 dilution in blocking buffer for 1hour at room temperature. […] Cells were washed 2 times with 4 °C PBS, and then the nuclei were counterstain with DAPI (ThermoFisher) for 10 min at room temperature in the dark. Cells were washed 2 times with 4 °C PBS, and then 4 °C PBS was added to cells and then images were acquired. […] Table 11: Antibodies Used in Immunocytochemistry Studies
Fluorescence Imaging - Imaging sessions were performed on a confocal microscope system (Carl Zeiss Microscopy) equipped with a dual spinning disk unit (Yokogawa). All components of the imaging system were controlled via the ZEN 2 software suite (Carl Zeiss Microscopy). The laser lines used were 405 nm, 488 nm and 639 nm to excite DAPI or the respective fluorophores. […] Nested t test was performed to calculate the significance amongst repeated measurements using GraphPad Prism software.
as §1, with “For LC3 staining primary antibodies were mouse anti-LC3 mab (5F10) (nanoTools) at 1:500 dilution” for “3B5H10 binds to diffuse mHTT. Diffuse mHTT is a monomeric”, “Guinea Pig anti-MAP2 polyclonal antibody (Synaptic Systems) at 1:500 dilution.” for “small oligomeric mHTT. Diffuse mHTT is correlated to pathological parameters in Huntington's disease. Compounds that bind the mHTT will reduce the levels of diffuse mHTT detected.”
Cells were washed 2 times with 4 °C PBS, and then incubated with secondary antibodies at 1:2000 dilution in blocking buffer for 1hour at room temperature. […] Cells were washed 2 times with 4 °C PBS, and then the nuclei were counterstain with DAPI (ThermoFisher) for 10 min at room temperature in the dark. Cells were washed 2 times with 4 °C PBS, and then 4 °C PBS was added to cells and then images were acquired.
EC 50 value was determined with non-linear regression.

STHdh 7/7 striatal cells = assay: Cell viability after heat shock (CellTiter Glo); format: cell-based; conditions: Mus musculus, 48 hours treatment, percentage in comparison to pre-heat shock cell viability, read-out: Cell Viability striatal cells 3h heat shocked
Procedure: RESULTS-Table 12bsummarizes the effect of the compounds on cell viability. STHdh 7/7 were heat shocked for 3 hours and treated for 48 hours with small molecule compounds. Table 12b lists the cell viability in striatal cells after 48 hours.
Effect of Compound 22 on Cell Viability of Wildtype Striatal Neurons - STHdh 7/7 cells are striatal cells that express wildtype huntingtin. These cells were cultured in the same conditions as described above for STHdh 111/111. The neurons were first heat shocked for 3 hours at 41 °C as described above. After 48 hours of treatment with the small molecule Compounds, cell viability was determined using the method described above. The "buffer" control is represents cells treated with a buffer only, without any compounds added. Some of the compounds show higher cell viability in comparison to control heat shocked STHdh 7/7 neurons with buffer and no treatment (Figure 5).

Mur16 and/or Mur46 = assay: Biacore Surface Plasmon Resonance (SPR) screening, binding to the target structures; conditions: for Binding properties: third analog screening, binding to the target structure in comparison to parent compound; for Biacore affinity: primary screen, compounds that demonstrated binding to Mur16 and/or Mur46
Procedure: (§2) Exon 1 of the HTT huntingtin (NCBI Gene ID 3064) was expressed as a fusion protein with (i) TRX only (MurTRX); (ii) 16Q (Mur16); and (iii) 46Q (Mur46). MurTRX, Mur16, and Mur46 were produced and purified by HIStag and size exclusion chromatography (SEC). The protocol for MurTRX, Mur16 and Mur46 expression was adopted from Bennett, M.J. et al. Proc. Natl. Acad. Sci. USA 99, 11634-11639. 2002.
Primary Screen - Results - 39 compounds determined from the in-silico screen were tested. Following solvent correction and blank subtraction, double referenced binding levels for samples were plotted against binding levels on both Mur 16 and Mur 46. […] The 4 compounds consistently bind with a higher response on the 16 Q surface than the 46 Q repeat surface, despite the MAb positive control showing the opposite trend.

Mur46 = biological target: T2, Mur46 (Homo sapiens, UniProt P42858, INS38QQQQQQQQQQQQQQQQQQQQQQQQQ); assay: Biacore SPR, Mur46 coupled flow cell; conditions: binding to Mur46; 0.1 mM compound concentration
T2 construct: linker […]; made in house; host or cells: E. coli BL21(DE3) plysE, pET28a+
Excerpt: as §2
Biacore Affinity Values for Binding of Compounds to Mur46

zebrafish larvae = assay: Motility Zebrafish Model (MPP+ exposure, photomotor assay and sleep); conditions: 500 µM MPP+ alone (naïve 40.8)
Procedure: Six groups were included in each experiment. Immediately after spawning, 40 embryos per group were allocated to a 24-well plate and system water (solvent) was added to all wells. […] MPP+ was prepared immediately prior to incubation and solutions were changed daily. At 120 hpf, drug treatment and MPP+ exposure was ceased and a 3X wash was performed with system water. Larvae were then relocated to 96-well plates for behavioral recording and placed in a separate recording room for 24-hour acclimation. Prior to behavioral recording, wells were fully replenished system water.
Naive group was exposed to solvent only. Vehicle group was exposed to solvent and vehicle corresponding to the vehicle of 20 µM drug solution (0.02% DMSO). MPP+ positive control was exposed to solvent and 500 µM MPP+.
Behavioral data was recorded from 1 p.m. on 6 dpf until shortly after wakening on 7 dpf. The recording consisted of a photomotor assay in which lights switch off and on in 30-minute intervals between 1 p.m. and 6 p.m., producing a consistent photomotor response. […] Upon lights being turned on again, the larvae cease movement followed by a return to baseline. This cycle is repeated five times. Following the last lights-off phase, constant illumination is presented until lights turn off at 10 p.m. for the night. Lights turn on again at 8 a.m. the following day.
Average movement frequency was measured during 30-minute lights-on phases of photomotor assay.
Distance moved (mm) was defined as the average distance moved during 30-minute lights-on phases of photomotor assay.
All data are presented as mean ± standard error of the mean (sem). For analysis of differences between groups, a Kruskal-Wallis one-way ANOVA with Dunn's multiple comparison post hoc test was performed. P < 0.05 was considered statistically significant.

T1 sequence (P42858 with tags, fused parts or gaps with the stated changes): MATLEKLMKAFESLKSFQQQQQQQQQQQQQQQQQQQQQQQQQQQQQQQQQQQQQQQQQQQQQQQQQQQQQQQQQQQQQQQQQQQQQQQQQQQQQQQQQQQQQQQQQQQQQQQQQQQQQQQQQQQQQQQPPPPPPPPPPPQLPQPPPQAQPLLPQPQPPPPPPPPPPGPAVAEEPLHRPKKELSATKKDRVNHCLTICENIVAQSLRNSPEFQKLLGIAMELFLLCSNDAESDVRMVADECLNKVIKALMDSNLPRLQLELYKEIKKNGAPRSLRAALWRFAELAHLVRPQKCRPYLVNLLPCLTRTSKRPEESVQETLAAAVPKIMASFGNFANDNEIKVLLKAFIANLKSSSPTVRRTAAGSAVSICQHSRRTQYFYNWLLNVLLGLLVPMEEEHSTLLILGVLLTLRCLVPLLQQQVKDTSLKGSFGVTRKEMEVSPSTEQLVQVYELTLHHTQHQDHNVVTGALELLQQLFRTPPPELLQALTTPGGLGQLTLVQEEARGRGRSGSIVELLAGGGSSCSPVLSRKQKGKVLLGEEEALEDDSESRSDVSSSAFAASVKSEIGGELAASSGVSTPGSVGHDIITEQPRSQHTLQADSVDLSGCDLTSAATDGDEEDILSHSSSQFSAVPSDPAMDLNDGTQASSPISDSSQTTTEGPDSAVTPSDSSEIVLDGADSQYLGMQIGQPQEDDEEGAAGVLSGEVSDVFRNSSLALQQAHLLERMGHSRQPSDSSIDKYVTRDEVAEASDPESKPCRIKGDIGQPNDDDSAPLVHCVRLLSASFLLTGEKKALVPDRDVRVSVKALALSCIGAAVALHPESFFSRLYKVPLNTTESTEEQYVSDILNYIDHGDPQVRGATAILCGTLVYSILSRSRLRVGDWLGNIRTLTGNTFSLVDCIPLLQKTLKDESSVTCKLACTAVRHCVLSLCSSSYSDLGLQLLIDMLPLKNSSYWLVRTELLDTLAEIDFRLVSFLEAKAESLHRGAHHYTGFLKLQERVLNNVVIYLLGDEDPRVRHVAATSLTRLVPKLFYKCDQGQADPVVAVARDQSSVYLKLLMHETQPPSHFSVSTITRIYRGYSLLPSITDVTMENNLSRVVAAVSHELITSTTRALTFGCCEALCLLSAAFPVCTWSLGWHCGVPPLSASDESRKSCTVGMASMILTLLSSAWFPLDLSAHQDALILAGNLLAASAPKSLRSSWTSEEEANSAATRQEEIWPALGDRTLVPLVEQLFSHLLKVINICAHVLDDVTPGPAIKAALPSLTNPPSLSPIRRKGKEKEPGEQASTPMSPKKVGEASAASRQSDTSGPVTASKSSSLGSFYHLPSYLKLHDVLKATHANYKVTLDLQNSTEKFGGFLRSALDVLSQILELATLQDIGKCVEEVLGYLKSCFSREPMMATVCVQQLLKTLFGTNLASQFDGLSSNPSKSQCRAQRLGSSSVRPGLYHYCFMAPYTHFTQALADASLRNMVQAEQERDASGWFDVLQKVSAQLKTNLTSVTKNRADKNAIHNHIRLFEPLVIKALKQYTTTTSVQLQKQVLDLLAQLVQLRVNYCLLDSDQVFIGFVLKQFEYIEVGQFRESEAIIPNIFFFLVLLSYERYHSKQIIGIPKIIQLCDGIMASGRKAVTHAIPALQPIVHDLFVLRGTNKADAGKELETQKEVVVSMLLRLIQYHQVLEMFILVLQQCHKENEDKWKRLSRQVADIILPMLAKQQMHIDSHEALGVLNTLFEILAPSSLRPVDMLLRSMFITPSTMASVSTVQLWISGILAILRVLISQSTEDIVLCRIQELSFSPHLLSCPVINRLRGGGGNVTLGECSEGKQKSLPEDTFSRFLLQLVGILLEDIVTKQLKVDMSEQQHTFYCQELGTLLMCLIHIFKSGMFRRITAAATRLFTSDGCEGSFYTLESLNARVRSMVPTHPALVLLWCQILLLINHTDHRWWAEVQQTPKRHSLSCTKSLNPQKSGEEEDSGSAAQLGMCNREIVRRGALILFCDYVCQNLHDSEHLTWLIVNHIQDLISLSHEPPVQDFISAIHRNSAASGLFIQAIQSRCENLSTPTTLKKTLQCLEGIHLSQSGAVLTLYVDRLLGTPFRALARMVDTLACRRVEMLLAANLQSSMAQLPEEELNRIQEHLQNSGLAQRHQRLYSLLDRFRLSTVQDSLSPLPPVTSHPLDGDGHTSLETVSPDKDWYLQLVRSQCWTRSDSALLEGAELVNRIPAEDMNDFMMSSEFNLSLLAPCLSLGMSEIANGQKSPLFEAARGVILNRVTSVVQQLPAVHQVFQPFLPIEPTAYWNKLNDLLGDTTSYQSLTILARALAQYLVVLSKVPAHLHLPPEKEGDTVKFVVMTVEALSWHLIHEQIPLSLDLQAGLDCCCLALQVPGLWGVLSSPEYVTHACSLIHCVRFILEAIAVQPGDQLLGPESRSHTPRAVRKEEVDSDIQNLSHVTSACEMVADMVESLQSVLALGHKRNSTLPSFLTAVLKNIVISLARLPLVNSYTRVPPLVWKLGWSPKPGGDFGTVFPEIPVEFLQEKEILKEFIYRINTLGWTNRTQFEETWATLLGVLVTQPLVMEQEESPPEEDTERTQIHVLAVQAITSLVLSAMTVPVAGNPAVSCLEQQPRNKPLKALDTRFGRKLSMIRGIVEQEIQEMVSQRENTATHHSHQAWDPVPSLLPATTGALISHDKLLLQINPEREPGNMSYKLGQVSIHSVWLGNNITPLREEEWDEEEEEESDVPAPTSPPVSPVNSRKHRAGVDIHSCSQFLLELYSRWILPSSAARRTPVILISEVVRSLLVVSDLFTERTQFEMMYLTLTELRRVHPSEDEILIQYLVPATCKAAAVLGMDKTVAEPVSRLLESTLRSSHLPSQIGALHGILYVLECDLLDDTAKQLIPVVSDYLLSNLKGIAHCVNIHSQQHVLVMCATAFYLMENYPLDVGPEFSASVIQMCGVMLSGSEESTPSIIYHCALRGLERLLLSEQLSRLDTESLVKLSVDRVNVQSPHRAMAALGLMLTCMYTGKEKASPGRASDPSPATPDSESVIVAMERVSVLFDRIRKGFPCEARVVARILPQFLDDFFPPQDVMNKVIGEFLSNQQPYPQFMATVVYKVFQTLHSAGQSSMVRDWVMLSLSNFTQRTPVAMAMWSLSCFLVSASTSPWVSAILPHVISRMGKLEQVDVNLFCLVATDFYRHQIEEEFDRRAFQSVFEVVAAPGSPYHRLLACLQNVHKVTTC
T2 sequence (P42858 with tags, fused parts or gaps with the stated changes limits assumed): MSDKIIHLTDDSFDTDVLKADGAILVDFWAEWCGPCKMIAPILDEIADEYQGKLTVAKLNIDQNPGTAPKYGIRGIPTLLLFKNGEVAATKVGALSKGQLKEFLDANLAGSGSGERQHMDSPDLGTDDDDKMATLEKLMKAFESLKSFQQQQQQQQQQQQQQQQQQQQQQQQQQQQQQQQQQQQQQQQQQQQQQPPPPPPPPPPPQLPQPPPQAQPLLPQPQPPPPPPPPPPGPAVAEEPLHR

CCc1[nH]c2ccc(C(=O)NCCN3CCN(C)CC3)cc2c1C [Compound 9]
viability at 10 µM ([1]; 48 h): 88%
mHTT after treatment (mHTT): 37%

Cc1[nH]c2ccc(C(=O)NCCN3CCN(C)CC3)cc2c1C [Compound 24]
viability at 10 µM [1]: 103%
remaining activity at 10 µM (mHTT): 47%

Cc1[nH]c2ccc(C(=O)NCCN3CCOCC3(C)C)cc2c1C [Compound 28]
viability at 10 µM [1]: 18%
remaining activity at 10 µM (mHTT): 51%
viability at 10 µM (STHdh 7/7 striatal cells): 52.4%

CC(C)N(CCNC(=O)c1ccc2[nH]c3c(c2c1)CCCC3)C(C)C [Compound 34]
viability at 10 µM ([1]; 48 h): 60%
mHTT after treatment (mHTT): 56%

O=C(NCCN1CCCCC1)c1ccc2[nH]c3c(c2c1)CCC3 [Compound 35]
viability at 10 µM [1]: 103%
remaining activity at 10 µM (mHTT): 56%

Cc1c(C)n(C)c2ccc(C(=O)NCCN(C(C)C)C(C)C)cc12 [Compound 39]
viability at 10 µM ([1]; 48 h): 117%
viability at 10 µM (STHdh 7/7 striatal cells): 154%

Cc1[nH]c2ccc(C(=O)NCCNC(C)(C)C)cc2c1C [Compound 50]
viability at 10 µM [1]: 67%
remaining activity at 10 µM (mHTT): 72%
viability at 10 µM (STHdh 7/7 striatal cells): 40.9%

Cc1[nH]c2ccc(C(=O)NCCN(C)C3CCCC3)cc2c1C [Compound 55]
viability at 10 µM ([1]; 48 h): 67%
mHTT after treatment (mHTT): 91%

CC(C)N(CCNC(=O)c1ccc2[nH]c3c(c2c1)CCCC3)C(C)C [Compound 57]
Binding properties (Mur16 and/or Mur46): ++

Cc1[nH]c2ccc(C(=O)Nc3ccccc3NC3CCN(C)CC3)cc2c1C [Compound 103]
Binding properties (Mur16 and/or Mur46): ++

Cc1[nH]c2ccc(C(=O)NCCN(C)C3CCCC3)cc2c1C [Compound 105]
Binding properties (Mur16 and/or Mur46): ++

O=C(O)C1Cc2c([nH]c3ccccc23)C(c2cccc(Br)c2)N1 (stereo not drawn) [Compound 109]
Biacore affinity (Mur16 and/or Mur46): 3 RU^2

Cc1[nH]c2ccccc2c1[C@]1(O)C(=O)Nc2c(Br)cc(Br)cc21 [Compound 110]
Biacore affinity (Mur16 and/or Mur46): 80 RU^2

Cc1[nH]c2ccc(C(=O)NCC(=O)NC(C)C)cc2c1C [Compound 113]
Biacore affinity (Mur16 and/or Mur46): 160 RU^2

Cc1[nH]c2ccc(C(=O)N(C)CCN(C)C3CC3)cc2c1C [Compound 114]
Binding properties (Mur16 and/or Mur46): +/-
Biacore affinity (Mur46): 20 RU^2

CON1CCC(NC(=O)c2ccc3[nH]c(C)c(C)c3c2)CC1 [Compound 115]
viability at 10 µM (STHdh 7/7 striatal cells): 136%

CCN(CC)C(=O)CNC(=O)c1ccc2[nH]c(C)c(C)c2c1 [Compound 116]
viability at 10 µM (STHdh 7/7 striatal cells): 118%

Cc1[nH]c2ccc(C(=O)N(C)CCN3C[C@@H](C)O[C@@H](C)C3)cc2c1C [Compound 117]
viability at 10 µM (STHdh 7/7 striatal cells): 118%

Cc1c(C)n(Cc2ccccc2)c2ccc(C(=O)NCCN(C)C)cc12 [Compound 118]
viability at 10 µM (STHdh 7/7 striatal cells): 110%

Cc1[nH]c2ccc(C(=O)N3CCN(C(C)C)CC3)cc2c1C [Compound 119]
viability at 10 µM (STHdh 7/7 striatal cells): 101%

COC[C@H](CCNC(=O)c1ccc2[nH]c(C)c(C)c2c1)OC [Compound 120]
viability at 10 µM (STHdh 7/7 striatal cells): 100%

Cc1[nH]c2ccc(C(=O)NCC(C)(C)OCC3CC3)cc2c1C [Compound 121]
viability at 10 µM (STHdh 7/7 striatal cells): 100%

CCN(CC)CCNCc1ccc2[nH]c(C)c(C)c2c1 [Compound 122]
viability at 10 µM (STHdh 7/7 striatal cells): 91.2%

CCN(CCNC(=O)c1ccc2[nH]ccc2c1)C1CC1 [Compound 123]
viability at 10 µM (STHdh 7/7 striatal cells): 83.8%

CO[C@@H](CNC(=O)c1ccc2[nH]c(C)c(C)c2c1)C(C)C [Compound 124]
viability at 10 µM (STHdh 7/7 striatal cells): 76.2%

Cc1[nH]c2ccc(C(=O)N(C)CCNC(=O)C(C)C)cc2c1C [Compound 125]
viability at 10 µM (STHdh 7/7 striatal cells): 67.9%

Cc1[nH]c2ccc(C(=O)N3CCCN(C(C)C)CC3)cc2c1C [Compound 126]
viability at 10 µM (STHdh 7/7 striatal cells): 42.5%

C[n+]1ccc(-c2ccccc2)cc1 [MPP+, 1-methyl-4-phenylpyridinium, reference compound]
movement frequency (zebrafish larvae): 13.3 movement bouts in 30 minutes
